As a reminder, the IC50 is the midpoint of a concentration-inhibition curve. Lower therefore signals inhibition by little substance.

Structures can show the parent of a compound that is named as a salt.

Results on 74 compounds are retold here after PMC8869358, “High-Throughput Chemical Screening and Structure-Based Models to Predict hERG Inhibition” (Biology, 2022).

Sequence of hERG (Q12809 whole entry): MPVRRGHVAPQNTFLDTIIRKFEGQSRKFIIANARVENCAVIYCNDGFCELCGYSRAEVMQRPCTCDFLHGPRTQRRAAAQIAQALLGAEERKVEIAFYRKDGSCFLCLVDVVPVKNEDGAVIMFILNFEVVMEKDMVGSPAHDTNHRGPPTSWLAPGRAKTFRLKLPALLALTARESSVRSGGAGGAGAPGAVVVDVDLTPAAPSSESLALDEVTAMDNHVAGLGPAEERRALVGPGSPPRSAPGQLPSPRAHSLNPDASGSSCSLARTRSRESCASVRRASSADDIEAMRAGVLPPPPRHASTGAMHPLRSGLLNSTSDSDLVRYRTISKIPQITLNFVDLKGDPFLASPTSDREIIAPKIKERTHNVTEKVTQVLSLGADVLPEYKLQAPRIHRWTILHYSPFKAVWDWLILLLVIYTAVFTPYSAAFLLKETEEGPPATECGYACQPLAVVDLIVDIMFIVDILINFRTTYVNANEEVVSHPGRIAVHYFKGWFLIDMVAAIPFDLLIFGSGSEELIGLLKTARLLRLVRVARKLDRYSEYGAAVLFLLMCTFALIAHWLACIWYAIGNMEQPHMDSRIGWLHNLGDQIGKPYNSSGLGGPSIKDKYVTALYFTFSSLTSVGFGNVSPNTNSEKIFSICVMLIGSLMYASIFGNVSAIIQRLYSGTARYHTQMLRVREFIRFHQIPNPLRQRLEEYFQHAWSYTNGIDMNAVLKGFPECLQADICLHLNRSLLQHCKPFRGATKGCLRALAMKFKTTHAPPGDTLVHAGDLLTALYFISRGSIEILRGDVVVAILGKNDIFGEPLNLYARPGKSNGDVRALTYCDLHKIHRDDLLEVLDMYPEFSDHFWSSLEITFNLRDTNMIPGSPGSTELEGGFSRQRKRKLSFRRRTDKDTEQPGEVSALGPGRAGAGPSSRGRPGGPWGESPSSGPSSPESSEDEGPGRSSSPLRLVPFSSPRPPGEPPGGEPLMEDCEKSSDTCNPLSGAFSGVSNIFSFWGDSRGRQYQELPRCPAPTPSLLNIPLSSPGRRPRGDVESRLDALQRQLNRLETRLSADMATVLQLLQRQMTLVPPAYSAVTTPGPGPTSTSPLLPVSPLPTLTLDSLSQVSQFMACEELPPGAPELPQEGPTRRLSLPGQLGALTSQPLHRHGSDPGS

This assay addresses hERG (Homo sapiens, UniProt Q12809). The assay can be described thus: cell-based. The conditions noted are these: (-LOG10(IC50), µM).
Compound `CCCCCCOc1cc(C)c(O)c(C)c1C` [1-O-Hexyl-2,3,5-trimethylhydroquinone] had an IC50 of 31.3 µM.

Compound `O=C1C=CC(=O)N1c1ccccc1` [1-Phenyl-1H-pyrrole-2,5-dione] had an IC50 of 50.9 µM.

Compound `CCCCCCCCCCCCCCN(CCO)CCO` [2,2'-(Tetradecylimino)diethanol] showed a half-maximal inhibitory concentration (IC50) of 16.1 µM.

For the compound `Clc1ccccc1-c1ccccc1Cl` [2,2'-Dichlorobiphenyl], inhibition was half-maximal at 17.6 µM (IC50).

For `Cc1cc(Cc2cc(C)cc(C(C)(C)C)c2O)c(O)c(C(C)(C)C)c1` [2,2'-Methylenebis(4-methyl-6-tert-butylphenol)], the IC50 is 31.1 µM.

Take `CCc1cc(Cc2cc(CC)cc(C(C)(C)C)c2O)c(O)c(C(C)(C)C)c1` [2,2'-Methylenebis(ethyl-6-tert-butylphenol)]: the IC50 was 17.4 µM.

For the compound `CC(C)C(OC(=O)c1ccccc1)C(C)(C)COC(=O)c1ccccc1` (centres unmarked) [2,2,4-Trimethylpentane-1,3-diyl dibenzoate], the IC50 is 21.9 µM.

On to `OCC(c1ccc(Cl)cc1)c1ccc(Cl)cc1` [2,2-Bis(4-chlorophenyl)ethanol], for which the IC50 was 49 µM.

In turn, `Oc1ccc(C(c2ccc(O)cc2)C(Cl)(Cl)Cl)cc1` [2,2-Bis(4-hydroxyphenyl)-1,1,1-trichloroethane] gave an IC50 of 54.9 µM.

The compound `CCC(COC(=O)CCS)(COC(=O)CCS)COC(=O)CCS` [2,2-Bis{[(3-sulfanylpropanoyl)oxy]methyl}butyl 3-sulfanylpropanoate] gave an IC50 of 38.9 µM.

On to `O=C(c1ccccc1)C(Cl)Cl` [2,2-Dichloro-1-phenylethanone], for which inhibition was half-maximal at 36 µM (IC50).

`Clc1nc(C(Cl)(Cl)Cl)c(Cl)c(Cl)c1Cl` [2,3,4,5-Tetrachloro-6-(trichloromethyl)pyridine] gave an IC50 of 49 µM.

`CCCCOCCOC(=O)COc1cc(Cl)c(Cl)cc1Cl` [2,4,5-T-butotyl]: the IC50 is 23.2 µM.

`CC(C)(C)c1cc(C(C)(C)C)c(O)c(C(C)(C)C)c1` [2,4,6-Tris(tert-butyl)phenol] had an IC50 of 17.4 µM.

With `CC(C)(c1ccccc1)c1ccc(O)c(C(C)(C)c2ccccc2)c1` [2,4-Bis(1-methyl-1-phenylethyl)phenol], the IC50 was 21.7 µM.

`CC(C)COC(=O)COc1ccc(Cl)cc1Cl` [2,4-D-isobutyl] returned an IC50 of 43.6 µM.

For the compound `O=[N+]([O-])c1cc(C(F)(F)F)c(Cl)c([N+](=O)[O-])c1Cl` [2,4-Dichloro-1,3-dinitro-5-(trifluoromethyl)benzene], the IC50 was 34.7 µM.

With `O=S(=O)(Oc1ccc(Cl)cc1Cl)c1ccccc1` [2,4-Dichlorophenyl benzenesulfonate], it took 51.8 µM to reach half-maximal inhibition (IC50).

The compound `CCc1cc(C(C)(C)C)c(O)c(C(C)(C)C)c1` [2,6-Di-tert-butyl-4-ethylphenol] had a concentration for half-maximal inhibition (IC50) of 19.5 µM.

Take `COc1cc(C(C)(C)C)c(O)c(C(C)(C)C)c1` [2,6-Di-tert-butyl-4-methoxyphenol]: the IC50 was 38.9 µM.

As for `CC(C)(C)c1cc([N+](=O)[O-])cc(C(C)(C)C)c1O` [2,6-Di-tert-butyl-4-nitrophenol], the IC50 is 38.9 µM.

`CC(C)(C)c1cccc(C(C)(C)C)c1O` [2,6-Di-tert-butylphenol] gave an IC50 of 19.8 µM.

Take `CC(C)(C)C1(CCc2ccc(Cl)cc2)CO1` (centres unmarked) [2-(2-(4-Chlorophenyl)ethyl)-2-(1,1-dimethylethyl)oxirane]: the IC50 was 23.2 µM.

In turn, `Cc1ccc(O)c(-n2nc3ccccc3n2)c1` [2-(2H-Benzotriazol-2-yl)-4-methylphenol] gave an IC50 of 36 µM.

As for `CCCCCCCCC=CCCCCCCCC1=NCCN1CCO` [2-(8-Heptadecenyl)-2-imidazoline-1-ethanol], half-maximal inhibition (IC50) required 11.8 µM.

Turning to `Nc1ccc(Cl)cc1C(=O)c1ccccc1` [2-Amino-5-chlorobenzophenone], the IC50 is 50.9 µM.

As for `CCOc1ccc2nc(N)sc2c1` [2-Amino-6-ethoxybenzothiazole], the IC50 came to 43.3 µM.

Regarding `CCC(Cc1ccccc1)(C(=O)c1ccc(N2CCOCC2)cc1)N(C)C` (centres unmarked) [2-Benzyl-2-(dimethylamino)-1-[4-(morpholin-4-yl)phenyl]butan-1-one], the IC50 is 19.5 µM.

Compound `Brc1ccccc1-c1ccccc1` [2-Bromobiphenyl] showed an IC50 of 35.5 µM.

`CCc1ccc2c(c1)C(=O)c1ccccc1C2=O` [2-Ethylanthraquinone]: 24.5 µM corresponded to half-maximal inhibition (IC50).

In the case of `CCCCC(CC)COC(=O)c1ccc(O)cc1` (centres unmarked) [2-Ethylhexyl p-hydroxybenzoate], the half-inhibitory concentration (IC50) was 24.5 µM.

In turn, `CCCCC(CC)COC(=O)C(C#N)=C(c1ccccc1)c1ccccc1` (centres unmarked) [2-Ethylhexyl-2-cyano-3,3-diphenylacrylate] had an IC50 of 18.4 µM.

For the compound `NNc1nc(-c2ccc([N+](=O)[O-])cc2)cs1` [2-Hydrazino-4-(4-nitrophenyl)thiazole], 23.6 µM corresponded to half-maximal inhibition (IC50).

`COc1ccc(C(=O)c2ccccc2)c(O)c1` [2-Hydroxy-4-methoxybenzophenone] came in with an IC50 of 43.6 µM.

Consider `Cc1ccc(O)c(C(=O)c2ccccc2)c1` [2-Hydroxy-5-methylbenzophenone], for which the IC50 is 35 µM.

`O=[N+]([O-])c1ccccc1Nc1ccccc1` [2-Nitrodiphenylamine]: the midpoint of inhibition, the IC50, lay at 48.7 µM.

In the case of `Cc1cc(C(C)(C)c2ccc(O)c(C)c2)ccc1O` [3,3'-Dimethylbisphenol A], the IC50 is 41.6 µM.

The compound `O=CC=C(c1ccccc1)c1ccccc1` [3,3-Diphenylacrylaldehyde] showed an IC50 of 42.4 µM.

`CC(C)(C)c1ccc(CCC=O)cc1` [3-(4-tert-Butylphenyl)propanal] had an IC50 of 49 µM.

`CC1C2CC(CC2C2CCCC(O)C2)C1(C)C` (centres unmarked) [3-(5,5,6-Trimethylbicyclo[2.2.1]hept-2-yl)cyclohexanol] had a concentration for half-maximal inhibition (IC50) of 22.7 µM.

Compound `CCCCC(CC)COCCCN` (centres unmarked) [3-((2-Ethylhexyl)oxy)propylamine] had a half-maximal inhibitory concentration (IC50) of 35.6 µM.

In turn, `CSCCCN=C=S` [3-(Methylthio)propyl isothiocyanate] had an IC50 of 36.7 µM.

As for `CCCCCCCCOCCCN` [3-(Octyloxy)propan-1-amine], the midpoint of inhibition, the IC50, lay at 43.6 µM.

Take `Cc1cccc(Nc2ccccc2)c1` [3-Methyl-N-phenylaniline]: the IC50 is 52.9 µM.

In turn, `O=C(C=Cc1ccccc1)OCCCc1ccccc1` [3-Phenylpropyl cinnamate] had an IC50 of 19.5 µM.

`O=C(CCS)OCC(COC(=O)CCS)(COC(=O)CCS)COC(=O)CCS` [3-[(3-Sulfanylpropanoyl)oxy]-2,2-bis{[(3-sulfanylpropanoyl)oxy]methyl}propyl 3-sulfanylpropanoate] had an IC50 of 33.4 µM.

As for `CC(C)CC(C)(c1ccc(O)cc1)c1ccc(O)cc1` [4,4'-(4-Methylpentane-2,2-diyl)diphenol], it took 28.6 µM to reach half-maximal inhibition (IC50).

As for `Brc1ccc(Oc2ccc(Br)cc2)cc1` [4,4'-Dibromodiphenyl ether], the IC50 is 18.8 µM.

Regarding `O=S(=O)(c1ccc(Cl)cc1)c1ccc(Cl)cc1` [4,4'-Dichlorodiphenyl sulfone], half-maximal inhibition (IC50) was put at 49.7 µM.

On to `CCCCCCCCn1sc(Cl)c(Cl)c1=O` [4,5-Dichloro-2-octyl-3(2H)-isothiazolone], for which the IC50 is 16.1 µM.

In turn, `CC(C)(C)CC(C)(C)c1ccc(O)cc1` [4-(1,1,3,3-Tetramethylbutyl)phenol] showed an IC50 of 21.3 µM.

`CCC(C)c1cc(C(C)(C)C)c(O)c(C(C)(C)C)c1` (centres unmarked) [4-(Butan-2-yl)-2,6-di-tert-butylphenol] showed an IC50 of 8.54 µM.

As for `Nc1ccc(Oc2ccc(Cl)cc2)cc1` [4-Chloro-4'-aminodiphenyl ether], the IC50 was 41.1 µM.

`CC(CC(C#N)(c1ccccc1)c1ccccc1)N(C)C` (centres unmarked) [4-Dimethylamino-2,2-diphenylvaleronitrile] gave a half-maximal inhibitory concentration (IC50) of 29.6 µM.

With `CCCCCCCCCCCCN1CCOCC1` [4-Dodecylmorpholine], half-maximal inhibition (IC50) was put at 15.5 µM.

In the case of `CCCCCCCCCCCCc1ccc(O)cc1` [4-Dodecylphenol], the IC50 was 19.5 µM.

Consider `O=[N+]([O-])c1ccc(Nc2ccccc2)cc1` [4-Nitro-N-phenylaniline], for which the IC50 was 51.3 µM.

Consider `CCCCCCCCCc1ccc(O)cc1` [4-Nonylphenol, branched], for which the IC50 was 34.3 µM.

Take `Cc1ccc(-c2ccccc2)cc1` [4-Phenyltoluene]: the IC50 was 49 µM.

Compound `N#Cc1ccc(CC(=O)c2cccc(C(F)(F)F)c2)cc1` [4-{2-Oxo-2-[3-(trifluoromethyl)phenyl]ethyl}benzonitrile] showed an IC50 of 30.9 µM.

`O=[N+]([O-])C1(Br)COCOC1` [5-Bromo-5-nitro-1,3-dioxane]: the IC50 is 51.9 µM.

Compound `O=C1CCCC=CCCCCCCCCCC1` [5-Cyclohexadecen-1-one] showed an IC50 of 29.2 µM.

The compound `COc1ccc2[nH]cc(CCN(C(C)C)C(C)C)c2c1` [5-Methoxy-N,N-diisopropyltryptamine hydrochloride] showed an IC50 of 25.2 µM.

As for `CC(C)CC(C)Nc1ccc(Nc2ccccc2)cc1` (centres unmarked) [6PPD], half-maximal inhibition (IC50) required 29 µM.

`C/C=C/C=C/CCCCCCCO` [8,10-Dodecadien-1-ol] gave an IC50 of 22.7 µM.

`CCn1c2ccccc2c2cc([N+](=O)[O-])ccc21` [9-Ethyl-3-nitro-9H-carbazole] gave an IC50 of 28.6 µM.

For `c1ccc2c(c1)CCc1ccccc1N2` [10,11-Dihydro-5H-dibenz[b,f]azepine], the IC50 is 19.7 µM.

In turn, `O=C1CCCCCCCCCCOCCCCO1` [12-Oxahexadecanolide] had an IC50 of 49 µM.

Consider `CCCCCC(=O)O[C@]1(C(C)=O)CC[C@H]2[C@@H]3CCC4=CC(=O)CC[C@]4(C)[C@H]3CC[C@@]21C` [17-((1-Oxohexyl)oxy)pregn-4-ene-3,20-dione], for which 22.6 µM corresponded to half-maximal inhibition (IC50).

The compound `COc1ccc2c(c1OC)C(=O)O[C@H]2[C@@H]1c2cc3c(cc2CCN1C)OCO3` [(1S,9R)-beta-Hydrastine] showed a concentration for half-maximal inhibition (IC50) of 19 µM.

`CC(Cc1ccc(C(C)(C)C)cc1)CN1C[C@@H](C)O[C@@H](C)C1` (stereo partly drawn) [(2R,6S)-Fenpropimorph]: half-maximal inhibition (IC50) was put at 15.5 µM.

`CC/C=C\CCOC(=O)c1ccccc1O` [(3Z)-Hex-3-en-1-yl salicylate] gave an IC50 of 34.7 µM.

Consider `CC1(C)CCC[C@]2(C)[C@H]3CC(=O)O[C@]3(C)CC[C@@H]12` [(3aR)-(+)-Sclareolide], for which it took 42 µM to reach half-maximal inhibition (IC50).

For `O=C(c1ccccc1)c1cc(Cl)ccc1O` [(5-Chloro-2-hydroxyphenyl)phenylmethanone], the half-maximal inhibitory concentration (IC50) was 46.5 µM.
